From patent US8778626B2, “Clickable cross-linker” (California Institute of Technology, priority 2010, dated 2014) come the findings set out here.

The nature of data set [1]: water solubility of CXL-1 verified by in vivo cross-linking. Conditions: PBS; inferred from in vivo cross-linking of Cul1. The format is physicochemical. How it is done:
(§1) To test the cell permeability and water solubility of CXL-1, in vivo cross-linking of HEK 293 cells, followed by Western blot analysis of the Cul1 protein were performed. The in vivo cross-linking of HEK 293 cells by CXL-1, followed by Western blot analysis was carried out as described previously with minor modifications (Lee et al., Mol. Cell. Proteomics 2010, Electronic preprint. doi:10.1074/mcp.M110.006460.) Briefly, to facilitate the purification of Cul1, a HEK 293-derived stable cell line capable of expressing tagged Cul1 upon tetracycline treatment was constructed using the T-REx™ (Tetracycline-regulated Expression) system (Invitrogen, Carlsbad, Calif.). The tandem tag used here consists of a hexa-histidine sequence and a biotinylation signal sequence (Tagwerker et al., 2006). Biotinylation is catalyzed by endogenous biotin ligases, which are present in all eukaryotic cells (Cronan J. Biol. Chem. 1990, 265, 10327). A specific lysine residue in the biotinylation signal sequence functions as an acceptor site for biotin in vivo (Kulman et al., Protein Expr. Purif. 2007, 52, 320).
Cul1 is a ubiquitin ligase that attaches a ubiquitin chain on target substrates for proteasome-catalyzed degradation (Deshaies, R. J. Annu. Rev. Cell Dev. Biol. 1999, 15, 435). Cul1 is a prototype of the cullin ligase family, and constitutes modular ligase complexes with other binding partners. […]

Another data set deals with HEK 293 cells. The data set can be described thus: cytotoxicity of CXL-1 on cells during in vivo cross-linking. It is filed as cell-based. As for the experimental part: Tagged Cul1 was induced with 1.0 μg/mL tetracycline for 4 hours in experiments for in vivo cross-linking. Twenty four hours after induction, cells were subject to in vivo cross-linking by treating 0, 0.1, 0.2, 0.5, and 1.0 mM of CXL-1, respectively, and incubated for 1 h at 37° C. After the completion of the cross-linking, cells were lysed for 30 minutes at 4° C. with the lysis buffer (0.050 M HEPES, pH 7.5, 0.0050 M Mg(OAc)2, 0.070 M KOAc, 10% glycerol, and 0.4% IGEPAL CA630). The lysate was centrifuged at 16,600 g at 4° C. for 20 min and the supernatant was used for Western blot analysis.
Cul1 is a ubiquitin ligase that attaches a ubiquitin chain on target substrates for proteasome-catalyzed degradation (Deshaies, R. J. Annu. Rev. Cell Dev. Biol. 1999, 15, 435). Cul1 is a prototype of the cullin ligase family, and constitutes modular ligase complexes with other binding partners. […] Secondly, if cytoplasmic Cul1 protein is cross-linked by CXL-1, the postulated cell permeability and water solubility from the design of CXL-1 can be verified. FIG. 11 depicts the Western blot analysis of cross-linked Cul1 samples acquired from in vivo cross-linking of HEK 293 cells. From the observation of the higher molecular weight band, Cul1 is cross-linked by CXL-1 in a range of approximately 0.5 to 1.0 mM. […] Accordingly, CXL-1 is compatible with the cellular environment for in vivo cross-linking.

In a further data set the target is T1, ubiquitin (Homo sapiens, UniProt P0CG47).
T1 construct: cross-linking of ubiquitin (PDB ID: 1 UBQ)
The data set can be described thus: circular dichroism spectrometry of CXL-1 cross-linked ubiquitin. Particulars: CD spectra, 0.25 or 1 mM CXL-1, t=0 and t=30 min, 1×PBS pH 7.4 (FIG. 10). How it is done:
The CXL-1 cross-linked ubiquitin samples were analyzed by an Aviv Model 62A DS Circular Dichroism (CD) Spectrometer (Lakewood, N.J.) at room temperature. The critical instrumental parameters included: acquisition range=200 to 300 nm, step size=1.00 nm, averaging time=5 s, bandwidth=1 nm, and path length=1 mm. One scan was recorded for each spectrum. For CXL-1 cross-linked samples, 1 to 4 μL of 50 mM CXL-1 stock solution in DMSO was added to 196 to 199 μL of 0.1 mg/mL ubiquitin in 1×PBS pH 7.4 to yield a final concentration of 0.25 to 1 mM CXL-1 in 200 CD spectra were collected upon addition of CXL-1 (t=0) and after 30 min of cross-linking reaction (t=0.5 h).
Circular dichroism (CD) spectrometry is a useful analytical technique for quick investigation of secondary structure, folding, and binding properties of peptides and proteins (Greenfield, N. J. Nat. Protocols 2007, 1, 2876). […] The CD spectra of native ubiquitin were previously recorded, yielding the secondary structure analysis of 6% α-helix, 10% β-sheet and 84% random structures, which can be observed as increasingly negative ellipticity over the range of 225 to 240 nm (Jenson et al., Biochim. Biophys. Acta 1980, 624, 378, the entire contents of which are herein incorporated by reference). […]
A general note: Circular dichroism is widely used to follow secondary structure.

Another data set concerns the target T2, Cul1 protein (Homo sapiens, UniProt Q13616).
T2 construct: expressed in transfected cells
The data set is described as follows: in vivo cross-linking of HEK 293 cells followed by Western blot analysis of Cul1. Conditions: inferred from cross-linking of cytoplasmic Cul1 in HEK 293 cells. It is filed as cell-based. How it is done:
as §1
Tagged Cul1 was induced with 1.0 μg/mL tetracycline for 4 hours in experiments for in vivo cross-linking. Twenty four hours after induction, cells were subject to in vivo cross-linking by treating 0, 0.1, 0.2, 0.5, and 1.0 mM of CXL-1, respectively, and incubated for 1 h at 37° C. […]
For orientation: A western blot detects proteins with antibodies after separation by electrophoresis.

T2 sequence (Q13616 whole entry): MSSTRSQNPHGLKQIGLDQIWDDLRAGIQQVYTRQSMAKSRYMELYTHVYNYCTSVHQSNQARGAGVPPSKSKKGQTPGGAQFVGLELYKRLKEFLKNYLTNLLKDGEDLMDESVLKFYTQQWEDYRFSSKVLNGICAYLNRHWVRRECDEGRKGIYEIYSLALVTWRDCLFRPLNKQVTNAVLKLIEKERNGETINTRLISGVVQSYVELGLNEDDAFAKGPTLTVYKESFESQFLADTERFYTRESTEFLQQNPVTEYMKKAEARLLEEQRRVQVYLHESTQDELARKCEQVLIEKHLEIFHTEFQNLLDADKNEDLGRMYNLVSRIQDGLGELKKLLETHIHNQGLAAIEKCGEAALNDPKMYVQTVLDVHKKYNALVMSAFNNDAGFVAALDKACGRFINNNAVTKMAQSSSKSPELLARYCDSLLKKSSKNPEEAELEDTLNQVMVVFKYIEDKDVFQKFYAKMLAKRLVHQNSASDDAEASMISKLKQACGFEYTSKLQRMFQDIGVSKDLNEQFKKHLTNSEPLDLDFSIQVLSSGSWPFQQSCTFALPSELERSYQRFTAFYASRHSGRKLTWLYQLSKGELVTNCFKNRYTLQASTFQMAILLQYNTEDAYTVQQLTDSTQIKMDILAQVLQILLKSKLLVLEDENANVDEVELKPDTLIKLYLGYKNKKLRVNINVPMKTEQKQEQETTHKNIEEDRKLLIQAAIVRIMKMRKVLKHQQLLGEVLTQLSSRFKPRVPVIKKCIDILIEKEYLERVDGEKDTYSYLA

For “NHS-activated 2,2′-(hex-5-ynylazanediyl)diacetic acid [CXL-1]”, the solubility result in data set [1] was “soluble in PBS”. Moreover, the “cytotoxic activity on cells” value in the data set with HEK 293 cells (CXL-1 in working concentration ranges) is “no or minimal cytotoxic activity”. For the same substance, in the data set with HEK 293 cells (treatment of CXL-1 up to 1 mM, HEK 293 cells, 1 h at 37° C.), the cell toxicity result is “did not induce any significant cell toxicity”. Moreover, the “contribution of CXL-1 on ubiquitin secondary structure” value on ubiquitin was “minimal or undetectable”. For the same substance, the cell permeability result at Cul1 protein is “cell-permeable”.
